Results published in PubChem BioAssay (NCI).
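In this assay, cells in 96-well plates receive the compound at five concentrations for 48 hours. Endpoints are linearly interpolated between the surrounding concentrations. At the GI50, growth is halved. TGI: total growth inhibition.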

Assays:
Test in all cases: DTP human tumour cell line panel, 48 h
[1] = tested on: 786-0 renal
[2] = tested on: A498 renal
[3] = tested on: A549 NSCLC
[4] = tested on: ACHN renal
[5] = tested on: BT-549 breast
[6] = tested on: CAKI-1 renal
[7] = tested on: CCRF-CEM leukemia
[8] = tested on: COLO 205 colon
[9] = tested on: DU-145 prostate
[10] = tested on: EKVX NSCLC
[11] = tested on: HCC-2998 colon
[12] = tested on: HCT-116 colon
[13] = tested on: HCT-15 colon
[14] = tested on: HL-60(TB) leukemia
[15] = tested on: HOP-62 NSCLC
[16] = tested on: HOP-92 NSCLC
[17] = tested on: HS 578T breast
[18] = tested on: HT29 colon
[19] = tested on: IGROV1 ovarian
[20] = tested on: K-562 leukemia
[21] = tested on: KM12 colon
[22] = tested on: LOX IMVI melanoma
[23] = tested on: M14 melanoma
[24] = tested on: MALME-3M melanoma
[25] = tested on: MCF7 breast
[26] = tested on: MDA-MB-231 breast
[27] = tested on: MDA-MB-435
[28] = tested on: MOLT-4 leukemia
[29] = tested on: NCI-H226 lung

## CC1Cc2c(Cl)ncnc2N(C)c2ccccc21 (stereo not drawn)
[1]
  GI50: 3.23 µM
  TGI: 11.5 µM
[2]
  GI50: 1.98 µM
  TGI: 5.41 µM
[3]
  GI50: 4.85 µM
  TGI: > 100 µM
[4]
  GI50: 3.79 µM
  TGI: > 100 µM
[5]
  GI50: 5 µM
  TGI: 33.9 µM
[6]
  GI50: 3.39 µM
  TGI: > 100 µM
[7]
  GI50: 4.53 µM
  TGI: > 100 µM
[8]
  GI50: 1.77 µM
  TGI: 3.41 µM
[9]
  GI50: 4.45 µM
  TGI: > 100 µM
[10]
  GI50: 3.13 µM
  TGI: > 100 µM
[11]
  GI50: 3.01 µM
  TGI: 10.6 µM
[12]
  GI50: 3.96 µM
  TGI: 80.3 µM
[13]
  GI50: 3 µM
  TGI: 11.3 µM
[14]
  GI50: 3.39 µM
  TGI: 15 µM
[15]
  GI50: 3.08 µM
  TGI: 14.7 µM
[16]
  GI50: 2.34 µM
  TGI: 7.17 µM
[17]
  GI50: 1.36 µM
  TGI: 47.3 µM
[18]
  GI50: 2.47 µM
  TGI: 7.27 µM
[19]
  GI50: 3.78 µM
  TGI: > 100 µM
[20]
  GI50: 4.44 µM
  TGI: > 100 µM
[21]
  GI50: 3.33 µM
  TGI: > 100 µM
[22]
  GI50: 1.71 µM
  TGI: 3.43 µM
[23]
  GI50: 2.77 µM
  TGI: 17.3 µM
[24]
  GI50: 2.03 µM
  TGI: 7.5 µM
[25]
  GI50: 3.17 µM
  TGI: 14.5 µM
[26]
  GI50: 2.39 µM
  TGI: 5.05 µM
[27]
  GI50: 3.24 µM
  TGI: 16.7 µM
[28]
  GI50: 3.46 µM
  TGI: > 100 µM
[29]
  GI50: 2.05 µM
  TGI: 21.7 µM
